These are literature values, as cited in patent US5973156A, “Piperidine and tetrahydropyridine derivatives” (Merck Sharp & Dome Ltd., priority 1995, dated 1999).

The test system of data set [1] is human 5-HT1D.spsb.α and 5-HT1D.spsb.β receptor subtypes.
The conditions of data set [2]: humans, therapeutic doses.

`CNS(=O)(=O)Cc1ccc2[nH]cc(CCN(C)C)c2c1` [sumatriptan]: the “discrimination between the human 5-HT1D.spsb.α and 5-HT1D.spsb.β receptor subtypes” value in data set [1] is “barely discriminates”. Besides, the adverse cardiovascular events entry in data set [2] is on record as “certain adverse cardiovascular events”.
